In EP0359745B1, “GROWTH FACTOR RECEPTOR” (IMPERIAL CANCER RESEARCH TECHNOLOGY LIMITED, priority 1987, dated 1988):
Non-standard residues stand in square brackets, D forms with d. Residues, ends and D or L forms follow the SMILES beside them.

Legend:
Swiss 3T3 cells [1] = assay: GRP-induced DNA synthesis ([³H]thymidine incorporation) in Swiss 3T3 cells; format: cell-based, mouse
Description: (§1) Cell culture procedure (33), assays of DNA synthesis by ³H-thymidine incorporation (34) ad ¹²⁵I-GRP binding to intact cells (13) were performed as described previously.
Figure 3. Inhibition of GRP-induced DNA synthesis by [DPro²]spantide (A) and [DPhe⁵]spantide (D). […] After 40 hours DNA synthesis was estimated by [³H]thymidine incorporation into acid-precipitable material. […] Each point represents the mean of duplicate determinations. […] Values are expressed as a percentage of [³H]thymidine incorporation obtained in the absence of antagonists (100% = 8.6 x 10⁵ cpm per dish). Each point represents the mean of 4 determinations.

GRP receptor = molecular target: T1, GRP receptor (Mus musculus, UniProt P21729); assay: specific [¹²⁵I]GRP binding to intact Swiss 3T3 cells; conditions: read-out: Half-maximal inhibition of binding
T1 construct: endogenous in cells; host or cells: Swiss 3T3 cells (mouse fibroblasts)
Description: as §1
(§2) Figure 4. […] Values are expressed as percentage of the specific binding obtained in the absence of antagonists. […] Each point represents the mean of 3 determinations. […] Specific binding (B) is expressed in pmol/10⁶ cells and is shown in a double-reciprocal plot. Each point represents the mean of duplicate determinations. […] After 2 hours, the cultures were washed twice with binding medium then incubated in 1 ml containing 6 mM ethylene glycol bis (succinimidylsuccinate) (EGS) at pH 7.4 for 15 minutes at 15°C. The cultures were then washed twice with cold phosphate-buffered saline and solubilised in 0.1 ml of 2x sample buffer, then immediately heated at 100°C for 5 minutes and electrophoresed on a 10% polyacrylamide gel.

Swiss 3T3 cells [2] = assay: GRP-stimulated rise in cytosolic Ca²⁺ concentration (fura-2 fluorescence) in Swiss 3T3 cells; format: cell-based, mouse; conditions: GRP (1 nM)
Description: (§3) Figure 5. […] Left: Effects of antagonists on [Ca²⁺]i. Quiescent Swiss 3T3 cells grown on Cytodex 2 beads were washed twice with DMEM and incubated for 10 minutes with fura-2 tetracetoxymethyl ester at 1 »m, then washed three times and suspended in 2 ml of electrolyte solution (6) in the fluorimeter at 37°C and stirred. Fluorescence was recorded continuously in a Perkins-Elmer LS5 luminescence spectrometer with an excitation wavelength of 335 nm and emission wavelength of 510 nm. After a period of equilibration, the following additions were made: solvent, S; antagonist A at 5 »m, A, 5 and 20 »m, A, 20; antagonist D at 5»m, D, 5. […] Values are expressed as percentages of the specific binding obtained with [¹²⁵I]EGF alone at 0.2 nM. The non-specific binding was obtained by the addition of 500-fold excess of unlabelled EGF. Each point represents the mean of 6 determinations.

Swiss 3T3 cells [3] = assay: reversal of the inhibition of [¹²⁵I]EGF binding induced by GRP in Swiss 3T3 cells; format: cell-based, mouse; conditions: read-out: Half-maximal reversal of inhibition (of [¹²⁵I]EGF binding by GRP); [¹²⁵I]EGF 0.2 nM, GRP 3.6 nM, 1 hour, 37°C
Description: as §3

H69 cells = assay: growth of SCLC cell line in serum-free medium (cell number, Coulter Counter); format: cell-based
Description: (§4) Figure 6. […] Stock cultures of cell lines H69, H128 and H417 were maintained in RPMI 1640 medium with 10% fetal bovine serum (heat inactivated) in a humidified atmosphere of 10% CO₂:90% air at 37°C. They were passaged every 7 days. Identical growth was obtained in the serum-free medium of RPMI 1640 supplemented with HITES (29) (hydrocortisone, 10 nM; insulin, 5 »g/ml; transferrin, 100 »g/ml; 17β-estradiol, 10 nM; sodium selenite, 30 nM) and 0.25% bovine serum albumin. […] Cell number was determined at intervals over 14 days in a Coulter Counter after disaggregation of cell clumps by syringing through 19G and 21G needles. Each point represents the mean of 3 determinations.
Figure 7. Inhibition of SCLC growth in vitro by [DPro²]spantide and [DPhe⁵]spantide is concentration-dependent. Cultures of H69 cells were washed twice with RPMI 1640 medium then incubated in serum-free medium (as in Figure 6) in the absence (●) or presence of various concentrations of [DPro²]spantide (o,A) and [DPhe⁵]spantide (△,D). Cell number was determined in a Coulter Counter after disaggregation of cell clumps by syringing through 19G and 21 G needles. Samples were incubated for 13 days, when the controls (inset) had achieved 10-fold increase in number, indicated by the arrow. Each point represents the mean (± standard deviation) of 5 determinations.

H128 = assay: as above; format: cell-based; conditions: antagonist at 150 »m, reversed by washing
Description: as §4

H417 = assay: as above; format: cell-based; conditions: antagonist at 150 »m, reversed by washing
Description: as §4

Mr 75000-85000 protein [4] = molecular target: T2, Mr 75000-85000 protein (Mus musculus, UniProt P21729); assay: ¹²⁵I-GRP affinity labelling (EGS cross-linking) of the Mr 75000-85000 protein in Swiss 3T3 cells, SDS-PAGE and scanning densitometry; format: binding; parameters: endogenous in cells; host or cells: Swiss 3T3 cells (mouse fibroblasts)
Description: (§5) After 2.5 h the cells were washed three times at 15°C with phosphate buffered saline (PBS) ad then incubated for 15 min at 15°C In 1 ml of binding medium, pH 7.4 In the presence of the appropriate cross-linking agent at the concentration indicated. The cross-linking agents (EGS, DSS, DSP and BSCOES) were dissolved in dimethyl sulphoxide immediately prior to use and were added to medium to give a final concentration of dimethylsulphoxide of 1-2%. The cultures were rapidly rinsed twice with PBS at 4°C and solubilized in 0.1ml of 2 x sample buffer 0.2 M Tris-HCl, pH 6.8, 10% (w/v) glycerol, 6% sodium dodecyl sulphate (SDS) (w/v) 4% β-mercaptoethanol (v/v) and 2 mM ethylenediaminetetraacetic acid. Samples were immediately heated at 100°C for 3-5 min and analysed by either one or two-dimensional gel electrophoresis.
Slab gel electrophoresis was performed using 7.5% acrylamide in the separating gel ad 5% in the stacking gel, ad 0.1% SDS (31). After electrophoresis gels were stained, destained and dried down onto paper for autoradiography with Fuji X-ray film (Fuji Photo Film Co. Ltd. Japan). Dried gels were exposed to film for 4-8 days. Two-dimensional gel electrophoresis was performed as described by O'Farrell (32) using isoelectric focusing in the 1st dimension and SDS-polyacrylamide gel electrophoresis (SDS-PAGE) (8% polyacrylamide) in the second dimension. The samples prepared for isoelectric focusing containing 1.4% LKB ampholytes, pH 5-7, plus 0.6% LKD ampholytes, pH 3.5-10, 6M urea, and 2% Nonidet P-40. The Mr 75000-85000 band from autoradiograms was scanned using a Joyce-Loebl double beam densitometer and the areas under specific peaks were measured with a Hewlett-Packard digitizer.
After this time some cells were washed four times with cold (4°C) PBS supplemented with 1 mg/ml BSA, solubilized and total cell associated radioactivity was then determined in a gamma counter. […] The cells were then solubilized and samples were analyzed by SDS-PAGE. After electrophoresis, gels were dried, exposed to film and scanned as described in Materials and Methods. The areas under the individual peaks for the Mr 75000-85000 protein are shown as a function of the concentration of the unlabelled peptide and are expressed as a percentage of the control. […] The level of the Mr 75000-85000 protein expressed in arbitrary units is shown as a function of the concentration of the labelled ligand. Inset: autoradiogram of the gel used for scanning; the Mr 75000-85000 and 160,000 bands are indicated by arrows. All other experimental details were as described in Materials and Methods.
as §2
After the incubation period cultures were treated with 6 mM EGS as described in Materials and Methods. Each value is expressed as a percentage of the level of the Mr 75000-85000 protein obtained with no additons (-). Other experimental details are as described in Materials and Methods.

Mr 75000-85000 protein [5] = molecular target: T2, Mr 75000-85000 protein; assay: as above; format: binding; parameters: endogenous in cells; host or cells: Swiss 3T3 cells (confluent, quiescent, intact); conditions: 2.5 h; read-out: Mr 75000-85000 protein % of control
Description: as §5
Slab gel electrophoresis was performed using 7.5% acrylamide in the separating gel ad 5% in the stacking gel, ad 0.1% SDS (31). […] The Mr 75000-85000 band from autoradiograms was scanned using a Joyce-Loebl double beam densitometer and the areas under specific peaks were measured with a Hewlett-Packard digitizer.
Confluent cultures of 3T3 cells were incubated with 5 nM ¹²⁵I-GRP in the presence of varying concentrations of non-radioactive ligand at 15°C for 2.5 h. […] The cells were then solubilized and samples were analyzed by SDS-PAGE. […]

T2 sequence (P21729 whole entry): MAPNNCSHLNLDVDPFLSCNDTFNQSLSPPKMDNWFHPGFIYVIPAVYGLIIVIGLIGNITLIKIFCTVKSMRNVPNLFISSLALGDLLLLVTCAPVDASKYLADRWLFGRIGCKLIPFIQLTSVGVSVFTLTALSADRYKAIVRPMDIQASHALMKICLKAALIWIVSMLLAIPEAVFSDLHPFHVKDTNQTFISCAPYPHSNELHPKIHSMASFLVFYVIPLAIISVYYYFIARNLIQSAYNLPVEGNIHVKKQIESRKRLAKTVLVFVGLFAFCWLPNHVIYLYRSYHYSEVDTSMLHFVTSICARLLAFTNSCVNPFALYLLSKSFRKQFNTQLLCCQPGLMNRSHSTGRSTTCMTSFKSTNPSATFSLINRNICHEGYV
T1 sequence (P21729 whole entry): as above

IC50 (GRP receptor) [µM] | IC50 (Mr 75000-85000 protein [4]; read-out: Half-maximal inhibition (affinity-labelling of the Mr 75000-85000 protein)) [µM] | cross-linking of ¹²⁵I-GRP / level of the Mr 75000-85000 protein (in words) (Mr 75000-85000 protein [4]; summary of Table 1, saturating concentrations of the other mitogens) | Mr 75000-85000 protein % of control (Mr 75000-85000 protein [4]; ¹²⁵I-GRP (0.5 nM), 15°C, 2.5 h, 6 mM EGS, additions: GRP 360 nM, GRP (14-27) 30 nM, bombesin 30 nM, litorin 92 nM, neuromedin B 220 nM, [D-Arg¹,D-Pro²,D-Trp^7,9,Leu¹¹] substance P 100 »M, GRP (1-16) 3230 nM, PDGF 5 nM, EGF 83 nM, vasopressin 1000 nM, insulin 1 »g/ml, phorbol 12,13 dibutyrate 2000 nM, substance P 740 nM, substance K 880 nM, somatostatin 610 nM, neurotensin 600 nM) | SMILES | IC50 (Swiss 3T3 cells [1]; GRP 3.6 nM, 40 hours, Figure 3 right, read-out: Half-maximal inhibition of DNA synthesis) [µM] | concentration of GRP required to produce half-maximal stimulation of DNA synthesis (Swiss 3T3 cells [1]; antagonist at 20 »m, Figure 3 left) | rise in [Ca²⁺]i caused by the addition of GRP (Swiss 3T3 cells [2]; antagonist at 5 »m) | rise in [Ca²⁺]i caused by the addition of GRP (Swiss 3T3 cells [2]; antagonist at 20 »m) | EC50 (Swiss 3T3 cells [3]) [µM] | rate of growth in serum-free medium (H69 cells; H69, antagonist at 150 »m, reversed by washing) | IC50 (H69 cells; H69 cells, serum-free medium, 13 days, read-out: half-maximal effect (inhibition of growth)) [µM] | rate of growth in serum-free medium (H128) | rate of growth in serum-free medium (H417) | remaining activity at 2 µM (Mr 75000-85000 protein [5]) [%]
14 | 20 | markedly inhibited | 9.7 % of control | CC(C)C[C@H](NC(=O)[C@H](CC(C)C)NC(=O)[C@@H](Cc1c[nH]c2ccccc12)NC(=O)[C@H](Cc1ccccc1)NC(=O)[C@@H](Cc1c[nH]c2ccccc12)NC(=O)[C@H](CCC(N)=O)NC(=O)[C@H](CCC(N)=O)NC(=O)[C@@H]1CCCN1C(=O)[C@H](CCCCN)NC(=O)[C@H]1CCCN1C(=O)[C@H](N)CCCNC(=N)N)C(N)=O [[DPro²]spantide, D-Arg-D-Pro-Lys-Pro-Gln-Gln-D-Trp-Phe-D-Trp-Leu-Leu-NH₂] (H-[dR][dP]KPQQ[dW]F[dW]LL-NH2) | 118 | only a slight effect | not | prevented | 30 | abolished | 82 | abolished | abolished | –
– | – | – | – | CCCC(=O)O[C@@H]1[C@@H](C)[C@@]2(O)[C@@H](C=C(CO)C[C@]3(O)C(=O)C(C)=C[C@@H]23)[C@@H]2C(C)(C)[C@]12OC(=O)CCC [Phorbol 12,13-dibutyrate] | – | – | – | – | – | – | – | – | – | 99
